Test results taken from publication PMC9813109, “Phase I dose-escalation study of milademetan in patients with relapsed or refractory acute myeloid leukemia” (International Journal of Hematology, 2022).
Entries after “also recorded” stand apart in the source; their conditions may differ.

Legend:
patients with R/R AML = tested on: patients with R/R AML
Protocol: This phase I, open-label, and dose-escalation study conducted at eight centers in Japan recruited patients with R/R AML. Four fixed-dose milademetan schedules were planned (Supplementary Fig. 1A). Increases in the milademetan dose were guided by the modified continual reassessment method (mCRM), with a planned maximum dose of 160 mg/day (Supplementary Fig. 1B). Each cohort (90, 120, and 160 mg) consisted of three to six patients. The first cycle was defined as the dose-limiting toxicity (DLT) evaluation period where patients required hospitalization. The number of treatment cycles was not specified, and the study treatment for each patient was continued unless the discontinuation criteria were met.
In this study, we only assessed the patients with schedule A‒milademetan was administered once daily on days 1–14 followed by a 14-day rest in a 28-day cycle.
Relative dose intensity (in percentage) was calculated as a proportion of dose intensity/planned dose intensity (proportion of dose administered/total treatment duration). Safety assessments were completed by documenting the AEs, ECOG PS, laboratory data, body weight, vital signs, and the results of 12 lead ECGs. Serious adverse events (SAEs) were defined as any AEs that caused mortality, were life-threatening, required hospitalization or prolonged existing hospitalization, caused disability or incapacity, or represented other medical conditions. Patients were followed up until the AEs resolved.
Patients were evaluated for DLT during the first 28 days of cycle 1, defined as any nonhematological AEs of grade ≥ 3 unless attributed to the primary disease course, complications, or concomitant medications. Nonhematological toxicities classified as DLTs were grade 4 AST/ALT, grade 3 AST/ALT lasting ≥ 3 days, grade 3 AST/ALT with grade ≥ 2 total bilirubin, or an inability to complete at least 75% of the prescribed milademetan doses in cycle 1 (28 days) due to grade ≥ 2 events. Hematological toxicities classified as DLTs included failure to recover neutrophil and platelet counts to ≥ 500/mm^3 and ≥ 20,000/mm^3, respectively, that delayed the initiation of cycle 2 for > 2 weeks. DLT evaluation findings were used to determine the MTD. AEs that were not classified as DLTs included grade 3 fatigue of < 3 days; grade 3 nausea or vomiting that resolved to grade ≤ 2 within 2 days after antiemetic therapy; grade 3 diarrheas that resolved to grade ≤ 2 within 2 days after antidiarrheal therapy; and alopecia, febrile neutropenia, and transient laboratory abnormalities either without symptoms or requiring continuous treatment. Examples of non-DLT AEs were grade ≥ 3 alkaline phosphatases, uric acid, amylase, lipase, or hyponatremia that resolved within 72 h of onset. The Common Terminology Criteria for Adverse Events (version 5.0) were used for grading, and each AE was coded using the Medical Dictionary for Regulatory Activities (version 21.1). Criteria for drug dose reduction or interruption are described in Supplementary material.
All patients who received at least one milademetan dose were included in the safety analysis set. […] The efficacy analysis set included all patients who received at least one milademetan dose and underwent efficacy evaluation at least once after treatment initiation. […] The biomarker analysis set included all patients who received at least one milademetan dose, whose specimens were collected for biomarker studies, and who had available measurement data. Following the first cycle, doses for subsequent cohorts were guided by an mCRM based on a Bayesian logistic regression model incorporating the escalation with the overdose control principle, clinical evaluation of the toxicological profile, and pharmacokinetics and pharmacodynamics information.

Platelet = tested on: Platelet; parameters: species or system human; conditions: in vivo
From the text: Patients were followed up until the AEs resolved.

MDM2–p53 interaction = tested on: MDM2–p53 interaction; parameters: method as in PMID 31310659, PMID 30724592; conditions: in vitro studies; cited from earlier work
[1] = tested on: patients with solid tumors or lymphomas; conditions: QD 21/28-day schedule, Japanese phase I; cited from earlier work

## CC1(C)CCC2(CC1)N[C@@H](C(=O)N[C@@H]1CC[C@@H](C(N)=O)OC1)[C@H](c1ccnc(Cl)c1F)[C@]21C(=O)Nc2cc(Cl)ccc21 [milademetan]
Patients with R/R AML; 14 patients
  Deaths or AEs leading to treatment discontinuation: No deaths or AEs leading to treatment discontinuation occurred; also recorded: No death or AEs that caused treatment discontinuation were noted
Patients with R/R AML; Total (n = 14)
  Skin infection, All grades: 1 (7.1) n (%)
  Skin infection, Grade ≥ 3: 1 (7.1) n (%)
Patients with R/R AML; human, in vivo
  Anemia, All grades: 5 (35.7) n (%)
  Anemia, Grade ≥ 3: 5 (35.7) n (%)
  Anemia, patients with TEAE regardless of causality: 35.7%
  Decreased appetite, All grades: 9 (64.3) n (%)
  Decreased appetite, Grade ≥ 3: 1 (7.1) n (%)
  Decreased appetite, patients with TEAE regardless of causality: 64.3%
  Diarrhea, All grades: 3 (21.4) n (%)
  Diarrhea, Grade ≥ 3: 1 (7.1) n (%)
  Dry mouth, All grades: 3 (21.4) n (%)
  Dry mouth, Grade ≥ 3: 0 (0.0) n (%)
  Febrile neutropenia, All grades: 7 (50.0) n (%)
  Febrile neutropenia, Grade ≥ 3: 7 (50.0) n (%)
  Febrile neutropenia, patients with TEAE regardless of causality: 50%
  Hypokalemia, All grades: 4 (28.6) n (%)
  Hypokalemia, Grade ≥ 3: 1 (7.1) n (%)
  Leukopenia, All grades: 1 (7.1) n (%)
  Leukopenia, Grade ≥ 3: 1 (7.1) n (%)
  Malaise, All grades: 3 (21.4) n (%)
  Malaise, Grade ≥ 3: 0 (0.0) n (%)
  Nausea, All grades: 6 (42.9) n (%)
  Nausea, Grade ≥ 3: 0 (0.0) n (%)
  Nausea, patients with TEAE regardless of causality: 42.9%
  Neutropenia, All grades: 2 (14.3) n (%)
  Neutropenia, Grade ≥ 3: 2 (14.3) n (%)
  Neutrophil count decreased, All grades: 1 (7.1) n (%)
  Neutrophil count decreased, Grade ≥ 3: 1 (7.1) n (%)
  Number of patients with SAEs: 4 patients
  Patients with TEAEs leading to study treatment interruption: 21.4%
  Patients with a TEAE that required dose reduction (acute kidney injury): 7.1%
  Patients with grade ≥ 3 TEAEs: 71.4%
  Pharyngitis, All grades: 1 (7.1) n (%)
  Pharyngitis, Grade ≥ 3: 1 (7.1) n (%)
  Platelet count decreased, All grades: 3 (21.4) n (%)
  Platelet count decreased, Grade ≥ 3: 3 (21.4) n (%)
  Pneumonia, All grades: 4 (28.6) n (%)
  Pneumonia, Grade ≥ 3: 3 (21.4) n (%)
  Serious TEAE: 4 (28.6) n (%)
  Stomatitis, All grades: 3 (21.4) n (%)
  Stomatitis, Grade ≥ 3: 0 (0.0) n (%)
  TEAE: 13 (92.9) n (%)
  TEAE by CTCAE grade ≤ 2: 3 (21.4) n (%)
  TEAE by CTCAE grade ≥ 3: 10 (71.4) n (%)
  TEAE leading to treatment interruption: decreased appetite: 1 n
  TEAE leading to treatment interruption: decreased neutrophil count: 1 n
  TEAE leading to treatment interruption: decreased platelet count: 1 n
  TEAE leading to treatment interruption: diarrhea: 1 n
  TEAE leading to treatment interruption: dysgeusia: 1 n
  TEAE leading to treatment interruption: febrile neutropenia: 2 n
  Thrombocytopenia, All grades: 4 (28.6) n (%)
  Thrombocytopenia, Grade ≥ 3: 4 (28.6) n (%)
  Tolerability: well tolerated up to 160 mg
  Vomiting, All grades: 4 (28.6) n (%)
  Vomiting, Grade ≥ 3: 0 (0.0) n (%)
  White blood cell count decreased, All grades: 1 (7.1) n (%)
  White blood cell count decreased, Grade ≥ 3: 1 (7.1) n (%)
Patients with R/R AML; human, in vivo, 28 days
  Recommended dose: 160 mg
Patients with R/R AML; in vivo
  Dose dependence of frequency of TEAEs that were grade ≥ 3, serious, or led to dose reduction/treatment interruption: No dose-dependent increase was observed
  Grade 4 TEAE: decreased neutrophil count: one
  Grade 4 TEAE: decreased platelet count: three
  Grade 4 TEAE: neutropenia: two
  Grade 4 TEAE: thrombocytopenia: two
  Number of reported SAEs (serious TEAEs): Five
  Other laboratory parameters (hematology, blood chemistry, urinalysis), vital signs, ECG parameters: No clinically relevant changes from baseline or consistent trends were observed
  SAE: febrile neutropenia: two
  SAE: pneumonia: three
Patients with R/R AML; up to 160 mg, QD 14/28 schedule
  Maximum tolerated dose (MTD): not reached
Platelet
  Mean platelet count vs baseline: decreased from the baseline in all cohorts
MDM2–p53 interaction
  Effect on MDM2–p53 interaction: inhibits the MDM2–p53 interaction
[1]
  Maximum tolerated dose (MTD): 90 mg
